Reference: the NIST ThermoML archive (doi:10.1021/je050200w)

Experiment: xn = mol fraction of the nth substance listed
Conditions: 101 kPa, Liquid

CCCCCCCCO [octan-1-ol] + CCCCCCCCCCO
x1 = 1
Conditions	mass density [kg/m3]	viscosity [mPa·s]
283.15 K	832.1	13.49
288.15 K	828.6	10.87
293.15 K	825.2	8.944
298.15 K	821.9	7.498
303.15 K	818.4	6.273
308.15 K	815	5.342
313.15 K	811.4	4.54

CCCCCCCCO [octan-1-ol] + CCCCCCCCCCCO
x1 = 1
Conditions	mass density [kg/m3]	viscosity [mPa·s]
293.15 K	825.2	8.944
298.15 K	821.9	7.498
303.15 K	818.4	6.273
308.15 K	815	5.342
313.15 K	811.4	4.54

CCCCCCCCCO [nonan-1-ol] + CCCCCCCCCCCO
x1 = 1
Conditions	mass density [kg/m3]	viscosity [mPa·s]
293.15 K	828.1	11.63
298.15 K	824.7	9.519
303.15 K	821.3	7.806
308.15 K	817.8	6.604
313.15 K	814.3	5.668

CCCCCCCCCCCO [1-undecanol] + CCCCCCCCO
Conditions	mass density, 293.15 K [kg/m3]	mass density, 298.15 K [kg/m3]	mass density, 303.15 K [kg/m3]	mass density, 308.15 K [kg/m3]	mass density, 313.15 K [kg/m3]	viscosity, 293.15 K [mPa·s]	viscosity, 298.15 K [mPa·s]	viscosity, 303.15 K [mPa·s]	viscosity, 308.15 K [mPa·s]	viscosity, 313.15 K [mPa·s]
x2 = 0	832.2	828.8	825.4	821.7	818.6	17.28	13.72	11.52	9.35	7.841
x2 = 0.1003	831.5	828.1	824.8	821.3	817.8	16.4	13.35	10.95	9.118	7.665
x2 = 0.2001	831	827.6	824.2	820.7	817.3	15.21	12.54	10.36	8.645	7.35
x2 = 0.2998	830.5	827	823.6	820.2	816.8	14.4	11.97	9.808	8.207	6.995
x2 = 0.4001	–	–	822.9	–	–	–	–	9.281	–	–
x2 = 0.4002	829.7	826.3	–	819.5	816	13.8	11.23	–	7.773	6.652
x2 = 0.4999	829	825.6	822.2	818.8	815.3	12.78	10.64	8.745	7.392	6.336
x2 = 0.5998	828.3	824.9	821.5	818.1	814.6	12.19	9.948	8.252	6.989	5.991
x2 = 0.6998	827.7	824.3	820.8	817.4	813.9	10.95	9.276	7.691	6.49	5.615
x2 = 0.8	826.9	823.5	820.1	816.6	813.1	10.24	8.693	7.271	6.137	5.295
x2 = 0.8999	826.2	822.8	819.3	815.8	812.3	9.416	8.002	6.723	5.728	4.957
